The values below come from patent publication US9145354B2, “Pharmaceutical compounds” (priority 2011, dated 2015).

For series [1], the system named is Huh-7 cells persistently infected with the HCV subgenomic replicon. In words: Replicon Assay (Example B), Alamar Blue cytotoxicity CC50. The class given is cell-based. To be noted: lower value of the cell pair. In outline:
(§1)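 Huh-7 cells carrying a luciferase/neo HCV subgenomic replicon (NS3–NS5b) were treated with semilog compound dilutions in triplicate (0.1% DMSO) for 72 h at 37 °C. Viability came from Alamar blue resazurin-to-resorufin fluorescence (535/590 nm) for CC50. EC50 came from Bright-Glo luciferase luminescence as a proxy for HCV RNA.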
(In general: A replicon is a self-replicating genome or part of one, used to study replication in cells.)

Series [2] deals with HCV subgenomic replicon in Huh-7 cells. Put plainly: Replicon Assay (Example B), luciferase readout EC50. The series is classed as cell-based. The method in brief:
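Huh-7 cells carrying a luciferase-neo HCV subgenomic replicon (NS3–NS5b) were treated with semilog compound dilutions (0.1% DMSO final), in triplicate, for 72 h at 37° C. EC50 came from Bright-Glo luciferase signal as a proxy for replicon RNA; viability was read by Alamar blue.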

For a further series, the target named is full length NS3/4a (Hepatitis C virus genotype 1b (isolate BK) (HCV), UniProt P26663). Put plainly: NS3 Protease Assay (Example A), FRET-based. The series is classed as biochemical. In outline: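 Full-length NS3/4a, made in-house, with an NS4A/B-derived peptide substrate carrying QXL520 quencher and 5-FAMsp fluorophore. Buffer 50 mM Tris pH8, 20 mM DTT, 1% CHAPS, 10% glycerol, 5% DMSO. Fluorescence followed 30 min at room temperature; IC50 from initial rates of replicate curves.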
Chain of full length NS3/4a (P26663 1027-1657): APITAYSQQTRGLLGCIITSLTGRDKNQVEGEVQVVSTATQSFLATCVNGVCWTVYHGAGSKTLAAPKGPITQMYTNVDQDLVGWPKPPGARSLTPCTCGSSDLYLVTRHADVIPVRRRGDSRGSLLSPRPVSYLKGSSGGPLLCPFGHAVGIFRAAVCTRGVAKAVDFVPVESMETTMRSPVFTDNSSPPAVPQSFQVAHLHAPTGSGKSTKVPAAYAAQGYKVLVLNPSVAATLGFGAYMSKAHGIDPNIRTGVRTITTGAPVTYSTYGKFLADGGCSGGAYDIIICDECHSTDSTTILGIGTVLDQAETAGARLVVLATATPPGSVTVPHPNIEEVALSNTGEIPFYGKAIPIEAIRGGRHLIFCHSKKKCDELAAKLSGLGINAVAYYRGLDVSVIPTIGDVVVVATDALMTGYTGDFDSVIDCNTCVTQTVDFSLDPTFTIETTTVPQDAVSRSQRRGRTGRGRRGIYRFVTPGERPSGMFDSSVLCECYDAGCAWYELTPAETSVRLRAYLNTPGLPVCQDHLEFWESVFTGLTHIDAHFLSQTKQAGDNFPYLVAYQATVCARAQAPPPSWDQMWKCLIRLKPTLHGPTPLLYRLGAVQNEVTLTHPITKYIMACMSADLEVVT

Series [3] is described as follows: Replicon Assay (Example B), Alamar Blue cytotoxicity CC50. The class given is cell-based. To be noted: human, lower value of the cell pair. The method in brief:
as §1

The subject of series [4] is compound resistant HCV replicon variants in replicon bearing cells. In words: Colony forming assay for compound resistant HCV replicon variants (Example C). The class given is cell-based. The note with it: up to 10x EC50, 1 mg/ml geneticin, 24 days, coomasie blue staining.
Method: The existence of compound resistant HCV replicon quasispecies was analysed using colony forming assays, where the emergence of compound resistant HCV replicon variants can allow production sufficient replicon encoded neomycin for cellular survival in medium containing 1 mg/ml geneticin (Life Technologies). 4,000 replicon bearing cells were plated/well on 12 well plates, and allowed to adhere overnight. […] The medium used also contained 1 mg/ml geneticin. Plates were then incubated at 37° C. in an atmosphere of 5% CO2 and air for 24 days the medium/compound solution with 1 mg/ml gentamicin was replaced twice every 7 days, before staining surviving colonies with coomasie blue.
The mark [5] stands for this setting: HCV NS3 protease assay, full length NS3/4a, read-out: Assay A IC50 (μM) average.
The mark [6] stands for this setting: Hepatitis C virus, Huh-7, replicon assay, luciferase readout, upper value of the cell pair, read-out: Assay B EC50.

Read-outs that look alike come from different tables or passages of the source. Some results are limits rather than exact numbers.

By CC50 is commonly meant the concentration giving 50% cytotoxicity. A lower CC50 goes with harm at low concentration. By EC50 is commonly meant the midpoint of the concentration-response curve. For `CCC(NC1CCCC1C(N)=O)c1ccc(Cl)c(C(=O)c2ccc(N)nc2)c1F` (racemic) [Example 126, 2-{[1-{3-[(6-aminopyridin-3-yl)carbonyl]-4-chloro-2-fluorophenyl}propyl]amino} cyclopentane-1-carboxamide], the cytotoxic concentration (CC50) in series [1] is greater than 3000 nM. Besides, the EC50 in series [2] (replicon assay, luciferase readout, upper value of the cell pair, read-out: Assay B EC50) is 91 nM.

`CC[C@@H](N[C@@H](C)CC(N)=O)c1ccc(Cl)c(C(=O)c2ccccc2)c1F` [Example 84, (3S)-3-{[(1R)-1-(3-benzoyl-4-chloro-2-fluorophenyl)-propyl]-amino}butanamide]: the IC50 at full length NS3/4a (setting [5]) was determined as 0.057 µM. Besides, the CC50 at 72 h in series [3] was greater than 3000 nM. In addition, the EC50 turned out to be 6 nM in series [2] (Hepatitis C virus, Huh-7, pre-determined EC50 used to set concentrations in combination studies, read-out: EC50 (replicon)) and 6 nM in series [2] (setting [6]). Besides, the “emergence of compound resistant colonies” value in series [4] was “prevented”.

With `C[C@@H](CC(N)=O)N[C@@H](c1ccc(Cl)c(C(=O)c2ccc3c(c2)OCC(=O)N3)c1F)C1CC1` [Example 270, (3S)-3-{[(R)-{4-chloro-2-fluoro-3-[(3-oxo-3,4-dihydro-2H-1,4-benzoxazin-7-yl)carbonyl]phenyl} (cyclopropyl)methyl]amino} butanamide], the values for the IC50 on full length NS3/4a (setting [5]) and at full length NS3/4a (read-out: IC50 against the protease activity of the full length NS3/4a) were 0.18 µM and less than 1 µM, respectively. In series [3], this compound registered a CC50 at 72 h greater than 3000 nM. The EC50 in series [2] (setting [6]) turned out to be 6 nM.

Regarding `CC[C@@H](N[C@@H](C)CC(N)=O)c1ccc(OC)c(C(=O)c2ccc(N)c(C)c2)c1F` [Example 273, (3S)-3-{[(1R)-1-{3-[(4-amino-3-methylphenyl)carbonyl]-2-fluoro-4-methoxyphenyl}propyl]amino}butanamide], on full length NS3/4a (setting [5]), the IC50 amounted to 0.14 µM. For the same compound, the CC50 at 72 h in series [3] is greater than 3000 nM. For the same compound, the EC50 in series [2] (setting [6]) was 27 nM.

Take `COc1cc(C(=O)c2c(Cl)ccc([C@H](N[C@@H](C)CC(N)=O)C3CC3)c2F)ccc1C#N` [Example 275, (3S)-3-{[(R)-{4-chloro-3-[(4-cyano-3-methoxyphenyl)carbonyl]-2-fluorophenyl}(cyclopropyl)methyl]amino}butanamide]: the IC50 at full length NS3/4a (setting [5]) was 0.13 µM. The CC50 at 72 h in series [3] was greater than 3000 nM. Further, in series [2] (setting [6]), the EC50 is 6.7 nM.

With `CC[C@@H](N[C@@H](C)CC(N)=O)c1ccc(OC)c(C(=O)c2cccc(C#N)c2)c1F` [Example 276, (3S)-3-{[(1R)-1-{3-[(3-cyanophenyl)carbonyl]-2-fluoro-4-methoxyphenyl}propyl]amino}butanamide], the IC50 at full length NS3/4a (setting [5]) is 0.11 µM. Further, the CC50 at 72 h in series [3] is greater than 3000 nM. In addition, the EC50 in series [2] (setting [6]) amounted to 27 nM.

Regarding `C[C@@H](CC(N)=O)N[C@H](CC1CC1)c1ccc(Cl)c(C(=O)c2ccc(N)nc2)c1F` [Example 278, (3S)-3-{[(1R)-1-{3-[(6-aminopyridin-3-yl)carbonyl]-4-chloro-2-fluorophenyl}-2-cyclopropylethyl]amino} butanamide], on full length NS3/4a (setting [5]), the IC50 worked out at 0.5 µM. The same compound registered a CC50 at 72 h in series [3] greater than 3000 nM. Also, the EC50 in series [2] (setting [6]) is 27 nM.

As to `[2H]C([2H])([2H])C([2H])([2H])[C@@H](N[C@@H](C)CC(N)=O)c1ccc(Cl)c(C(=O)c2ccc3c(c2)OCC(=O)N3)c1F` [Example 280, (3S)-3-{[(1R)-1-{4-chloro-2-fluoro-3-[(3-oxo-3,4-dihydro-2H-1,4-benzoxazin-7-yl)carbonyl]phenyl}(2,2,3,3,3-pentadeuteryl)propyl]amino} butanamide], at full length NS3/4a (setting [5]), the IC50 worked out at 0.3 µM. Besides, the CC50 at 72 h in series [3] is greater than 3000 nM. In addition, the EC50 in series [2] (setting [6]) was determined as 25 nM.
